Calls of active or inactive are those of the source. No cut-off for these calls is given here.
How the values were obtained:
Hepatitis C virus [1] = experiment: Antiviral activity against Hepatitis C virus H2B2; assay type: functional, organism-based, Hepacivirus hominis
Hepatitis C virus [2] = experiment: Antiviral activity against HCV infected in human HBI10A cells; assay type: functional, organism-based, Hepacivirus hominis
[3] = Inhibition of HCV genotype 2b NS5B polymerase deltaC21 mutant; set-up: species or system Hepatitis C virus subtype 2b
Hepatitis C virus [4] = experiment: Inhibition of HCV genotype 1b NS5B polymerase deltaC21 mutant; assay type: functional, Hepatitis C virus subtype 1b
[5] = Cytotoxicity against human HBI10A cells; assay type: cell-based
[6] = Selectivity index, ratio of CC50 for human HBI10A cells to EC50 for Hepatitis C virus; assay type: toxicity, cell-based; details: read-out: Ratio CC50/EC50
Hepatitis C virus [7] = experiment: Inhibition of HCV genotype 1b NS5B polymerase deltaC21 M423K mutant at 2 uM; assay type: functional; details: Hepatitis C virus subtype 1b
[8] = Cytotoxicity against human HBI10A cells at 20 uM; assay type: cell-based
Hepatitis C virus [9] = experiment: Inhibition of HCV genotype 1b NS5B polymerase deltaC21 M423K mutant; assay type: functional, Hepatitis C virus subtype 1b
Hepatitis C virus [10] = experiment: Antiviral activity against Hepatitis C virus at 20 uM; details: Hepacivirus hominis
Hepatitis C virus [11] = experiment: Inhibition of HCV genotype 1b NS5B polymerase deltaC21 mutant at 50 uM; assay type: functional; details: Hepatitis C virus subtype 1b
Hepatitis C virus [12] = experiment: Inhibition of HCV genotype 1b NS5B polymerase deltaC21 M423K mutant at 50 uM; assay type: functional; details: Hepatitis C virus subtype 1b
[13] = Hepatitis C virus, H2B2, read-out: EC50

Row | Compound | EC50 (Hepatitis C virus [1]; [13]) | EC50 (Hepatitis C virus [2]) | IC50 [3] | IC50 (Hepatitis C virus [4]; read-out: IC50) | CC50 ([5]; HBI10A cells, read-out: CC50) | selectivity ratio [6] | further results
1 | Cn1c(=O)n(-c2cccc(Cl)c2)c(=O)c2ccc(NCCO)cc21 | > 100 µM | 40 µM | 8.2 µM | 2 µM | > 100 µM |  | 
2 | O=c1[nH]c2cc(NCCO)ccc2c(=O)n1-c1cccc(Cl)c1 | > 100 µM | > 100 µM | > 50 µM | 5.5 µM | > 100 µM |  | 
3 | O=c1c2ccc(NCCO)c3c2n(c(=O)n1-c1cccc(Cl)c1)CCC3 | 26 µM | 15 µM | 0.67 µM | 0.2 µM | 12 µM | 0.8 | 
4 | O=c1c2ccc(NC3CCN(Cc4ccccc4)CC3)c3c2n(c(=O)n1-c1cccc(Cl)c1)CCC3 | 4.9 µM | 1.7 µM | 0.14 µM | 0.008 µM | 10 µM | 5.9 | 
5 | O=C(NCCO)c1cccc2c(=O)n(-c3cccc(Cl)c3)c(=O)[nH]c12 |  | < 100 µM | > 10 µM | > 10 µM |  |  | EC50 (Hepatitis C virus [1]): Not Active; CC50 ([5]; hbi10a): Not Active
6 | O=C1c2cccc3c(NCCO)ccc(c23)C(=O)N1c1cccc(Br)c1 | 18 µM |  | 0.18 µM | 0.02 µM | 68 µM |  | inhibition (Hepatitis C virus [7]): inactive
7 | Cn1c(=O)n(-c2cccc(Cl)c2)c(=O)c2ccc(NC3CCN(Cc4ccccc4)CC3)cc21 | > 25 µM | 11 µM | 1.3 µM | 0.075 µM | 9.9 µM | 0.9 | 
8 | Cc1c(NCCO)ccc2c(=O)n(-c3cccc(Cl)c3)c(=O)n(C)c12 | > 100 µM | 40 µM | 5.3 µM | 2.4 µM | > 100 µM | > 2.5 | 
9 | Cc1c(NC2CCN(Cc3ccccc3)CC2)ccc2c(=O)n(-c3cccc(Cl)c3)c3nncn3c12 | < 100 µM | 3 µM | 0.4 µM | 6.6 µM | 9 µM | 3 | 
10 | C=C[C@H]1C[N@@]2CC[C@H]1C[C@H]2[C@H](O)c1ccnc2ccc(OC)cc12 [QUININE] |  |  |  |  |  |  | inhibition (INH) [8]: Not Active
11 | O=C1c2cccc3c(NC4CCN(Cc5ccccc5)CC4)ccc(c23)C(=O)N1c1cccc(Br)c1 | 1.7 µM | 2.2 µM | 0.043 µM | < 0.014 µM | 5.2 µM | 2.4 | 
12 | O=C(O)c1cccc(CN2CCn3c(=O)n(-c4cccc(Cl)c4)c(=O)c4cccc2c43)c1 | > 100 µM | 27 µM | 2 µM | 0.13 µM | > 100 µM | > 3.7 | 
13 | COc1cccc2c1C(=O)c1c(O)c3c(c(O)c1C2=O)C[C@@](O)(C(=O)CO)C[C@@H]3O[C@H]1C[C@H](N)[C@H](O)[C@H](C)O1 [DOXORUBICIN] |  |  |  |  | < 0.3 µM | < 1 | IC50 (Hepatitis C virus [9]): 12 µM; IC50 (Hepatitis C virus [4]): 2.6 µM
14 | O=C(O)c1cc(Cl)cc(-n2c(=O)c3ccc(NC4CCN(Cc5ccccc5)CC4)c4c3n(c2=O)CCC4)c1 | 20 µM | 4.1 µM | 0.72 µM | 0.16 µM | 42 µM | 10 | 
15 | C=C[C@H]1CN2CC[C@H]1C[C@H]2[C@H](O)c1ccnc2ccc(OC)cc12 |  |  |  |  |  |  | inhibition (Hepatitis C virus [10]): inactive; inhibition (Hepatitis C virus [11]): inactive; inhibition (Hepatitis C virus [12]): inactive
16 | CC[n+]1c(-c2ccccc2)c2cc(N)ccc2c2ccc(N)cc21 [HOMIDIUM BROMIDE] |  |  |  | 0.81 µM | 0.7 µM | 0.85 | IC50 (Hepatitis C virus [9]): 3.8 µM
17 | O=c1c2ccc(N[C@H]3CC[C@@H](C(=O)O)CC3)c3c2n(c(=O)n1-c1cccc(Cl)c1)CCC3 | 17 µM | 13 µM | 0.49 µM | 1.1 µM | > 100 µM | > 7.8 | 
18 | O=c1c2ccc(NC3CCN(Cc4ccccc4)CC3)cc2n2ccnc2n1-c1cccc(Cl)c1 | 2.6 µM | 3.7 µM | > 5 µM | 0.84 µM | 3.2 µM | 0.9 | 
19 | O=c1c2cccc3c2n(c(=O)n1-c1cccc(Cl)c1)CCN3CCCO | > 100 µM | < 100 µM | 7.7 µM | 5.2 µM |  |  | CC50 ([5]; hbi10a): Not Active
20 | O=c1c2ccc(NCCO)cc2n2ccnc2n1-c1cccc(Cl)c1 |  | > 100 µM | > 10 µM | > 10 µM |  |  | EC50 (Hepatitis C virus [1]): Not Active; CC50 ([5]; hbi10a): Not Active
21 | CC1CCC(Nc2ccc3c(=O)n(-c4cccc(Cl)c4)c(=O)n(C)c3c2)CC1 (stereo unspecified) | 16 µM | 22 µM | 2.3 µM | 5.2 µM | 36 µM | 1.6 | 
22 | O=C(NC1CCN(Cc2ccccc2)CC1)c1cccc2c(=O)n(-c3cccc(Cl)c3)c(=O)[nH]c12 | 6.6 µM | 4 µM | 0.73 µM | 0.076 µM | 7 µM | 1.8 | 
23 | CC(C)CNc1ccc2c(=O)n(-c3cccc(Cl)c3)c(=O)n(C)c2c1 | > 100 µM | 24 µM | 5 µM | 3 µM | > 100 µM | > 4 | 
24 | Cc1c(NCCO)ccc2c(=O)n(-c3cccc(Cl)c3)c3nncn3c12 |  | 14 µM | 5.3 µM | 0.38 µM |  |  | EC50 (Hepatitis C virus [1]): Not Active; CC50 ([5]; hbi10a): Not Active
25 | O=C1c2cccc3c(NCCO)ccc(c23)C(=O)N1c1cccc(Cl)c1 | 35 µM | 8.4 µM | 0.21 µM | 0.039 µM | 57 µM | 6.8 | 
